Data published in US6348317B1, “Fluorescent and DNA cleavage properties of peptide/dye conjugates” (The Arizona Board of Regents, priority 1999, dated 2002).

Experiments:
GRE2 dsDNA = assay: Photocleavage at 514 nm, intensity dependence of guanine oxidation; format: biochemical; conditions: 160 nM duplex DNA, 200 nM TO-ZF, piperidine
Procedure: The purified DNA strands shown in FIG. 2 were 5′^-32P-end-labeled using T4 polynucleotide kinase and purified as described above. Oxygen removal was performed by bubbling argon through the samples. Irradiations were performed on […] samples in a 1.0 mL glass cuvette fit with a septum using an argon-ion laser at 514 nm with a power of 300 mW/cm^2. After irradiation, samples were divided in half and one portion treated with piperidine, the other immediately frozen. Piperidine treatment consisted of adding an equal volume of freshly prepared 20% piperidine in water to the sample followed by heating at 90° C. for 30 minutes. Both the treated and untreated fractions were dried under vacuum. To each dried sample was added […] of 80% formamide in water. The products of the photocleavage experiments were analyzed on a 15% polyacrylamide (19:1) vertical sequencing gel with dimensions 21 cm×40 cm×0.4 mm. […] Gels were dried and exposed to a phosphorimaging screen for 4 hours and analyzed on a Molecular Dynamics Storm-840 gel scanner in phosphorimaging mode.
Photocleavage of TO-ZF conjugate. […] After irradiation of TO-ZF bound to dsDNA in Tris buffer solution at 514 nm (514 nm is in the main band of the absorbance spectrum of intercalated thiazole orange as shown in FIG. 3), the photo-products were denatured and separated using denaturing polyacrylamide gel electrophoresis (PAGE). […]

GRE3 dsDNA = assay: Photocleavage at 514 nm, PAGE analysis; format: biochemical
Procedure: The purified DNA strands shown in FIG. 2 were 5′^-32P-end-labeled using T4 polynucleotide kinase and purified as described above. Oxygen removal was performed by bubbling argon through the samples. Irradiations were performed on […] samples in a 1.0 mL glass cuvette fit with a septum using an argon-ion laser at 514 nm with a power of 300 mW/cm^2. After irradiation, samples were divided in half and one portion treated with piperidine, the other immediately frozen. Piperidine treatment consisted of adding an equal volume of freshly prepared 20% piperidine in water to the sample followed by heating at 90° C. for 30 minutes. Both the treated and untreated fractions were dried under vacuum. To each dried sample was added […] of 80% formamide in water. The products of the photocleavage experiments were analyzed on a 15% polyacrylamide (19:1) vertical sequencing gel with dimensions 21 cm×40 cm×0.4 mm. Maxam-Gilbert A+G and C+T sequencing reactions were used as a reference. A. M. Maxam, et al., Meth. Enzymol. 65:499-560 (1980). Gels were run at 2000V for 1.5-2 hours. Gels were dried and exposed to a phosphorimaging screen for 4 hours and analyzed on a Molecular Dynamics Storm-840 gel scanner in phosphorimaging mode.
Photocleavage of TO-ZF conjugate. We examined the photoinduced cleavage of 5′-32P-end-labeled dsDNA fragments containing the dsDNA sequences GRE1, GRE2 and GRE3 in the presence of either unconjugated TO or TO-ZF. […] We have performed similar photocleavage measurements of the complementary strands in the dsDNA duplexes used in each case. […] After irradiation of TO-ZF bound to dsDNA in Tris buffer solution at 514 nm (514 nm is in the main band of the absorbance spectrum of intercalated thiazole orange as shown in FIG. 3), the photo-products were denatured and separated using denaturing polyacrylamide gel electrophoresis (PAGE). […]
To explore other possible mechanisms of thiazole orange mediated photocleavage in the region on the 5′-side of the GRE target sequence, the guanine located within the GRE (5′-TGTTCT-3′) in the GRE1 dsDNA fragment was changed to an adenine to give GRE3 (FIG. 2). […] Fluorescence measurements of TO-ZF binding to GRE1 and GRE3 target sequences (FIG. 5A) show only a modest difference in the dissociation constant between the two sequences. Thus the measured changes in the photocleavage products between GRE1 and GRE3 are not an artifact of strong differences in the binding affinity of TO-ZF between these sequences. […] The total chemical yield of the piperidine dependent reactions in these bands, measured as the number of fluorescence counts in product bands divided by the total counts of a given lane, increased three-fold from 2% in GRE1 (described above) to 6% in GRE3 for samples reacted in the presence of oxygen. […]

[1] = test system: 5′-32P-end-labeled GRE2 duplex DNA; assay: Radical hydroxyl footprinting; format: binding; conditions: 60 minutes in the dark at 25° C., 60 seconds reaction
Procedure: The protocol for radical hydroxyl footprinting reactions was adapted from previously established methods, A. Revzin, Ed., Separation, Detection and Characterization of Biological Macromolecules (1993); P. E. Nielsen, J. Molec. Recog. 3:1-25 (1990). Reaction samples comprised of the TO-ZF and 5′^-32P-end-labeled GRE2 in 20 mM Tris (pH 7.9), 40 mM NaCl, 20 mM KCl, 1 mM MgCl2 were allowed to equilibrate in the dark at room temperature for 60 minutes. Equal volumes of a freshly prepared solution of 0.2 mM [Fe(EDTA)]^2− was mixed with a 0.3% H2O2 solution and a 10 mM sodium ascorbate solution and added to the reaction sample. After a one minute incubation, the reactions were quenched with an aqueous solution of 20 mM thiourea and 10 mg/ml tRNA. The footprinting reactions were analyzed on a 15% denaturing polyacrylamide gel.
Footprinting of TO-ZF Conjugate. DNA footprinting by the TO-ZF conjugate was performed to determine if the TO-ZF conjugate was binding the same sequence as the native glucocorticoid receptor protein DNA-binding domain. More specifically, reaction samples (Maxam-Gilbert A+G and C+T sequencing reactions, radical hydroxyl cleavage of GRE2 in the presence of TO-ZF, radical hydroxyl cleavage of GRE2 in the absence of TO-ZF) contained […] duplex DNA and […] TO-ZF, 20 mM Tris (pH 7.9), 40 mM NaCl, 20 mM KCl, 1 mM MgCl2. […]

Q: Which “preferential site of photocleavage” value (GRE2 dsDNA) does the source give for “TO-ZF: 29 amino acid single zinc finger from residues 438-465 of glucocorticoid receptor, thiazole orange coupled to a lysine ε-amine” here?
A: Preferential cleavage is observed at the 5′-G of the GG sequence

Q: What about the “pattern of photo-induced cleavage” value (GRE3 dsDNA; 514 nm, gel electrophoresis) of the same substance?
A: a confined group of bands flanking the altered GRE sequence which are only partially piperidine dependent

Q: What about the “increase in band intensity of strand cleavage in the presence of D2O” value (GRE3 dsDNA; D2O rather than H2O in the buffer) of the same substance?
A: ≤ 25%

Q: What about the “lowering of chemical yield in the absence of oxygen” value (GRE3 dsDNA; piperidine treated samples, absence of oxygen) of the same substance?
A: 10-20%

Q: What about the “total chemical yield of the piperidine dependent reactions” value (GRE3 dsDNA; samples reacted in the presence of oxygen) of the same substance?
A: 6%

Q: And the “region protected from radical hydroxyl cleavage” value [1]?
A: protects a four base pair region (TTCT) within the native GRE binding sequence
